Data reported in patent US6906086B2, “Methods for inhibiting bone loss” (Eli Lilly and Company, priority 1992, dated 2005).
“Also recorded” adds a separate entry of the source. Counter-ions that a name gives are not always drawn. Like-named read-outs stand apart in the source and are kept apart here.

Experiments:
[1] = test system: ovariectomized (ovex) rats; assay: Ovariectomized rat model of post-menopausal osteoporosis: femur density by single photon absorptiometry; assay type: in vivo, Sprague Dawley rats; details: for inhibition in vivo at 1 mg/kg: Rattus norvegicus, read-out: % Inhibition of Bone Loss; for prevention of bone loss (femur density), in words: oral
Protocol: In the examples illustrating the methods, a model of post-menopausal osteoporosis was used in which effects of different treatments upon femur density were determined.
Seventy-five day old female Sprague Dawley rats (weight range of 225 to 275 g) were obtained from Charles River Laboratories (Portage, Mich.). They were housed in groups of 3 and had ad libitum access to food (calcium content approximately 1%) and water. Room temperature was maintained at 22.2°±1.7° C. with a minimum relative humidity of 40%. The photoperiod in the room was 12 hours light and 12 hours dark.
The right femurs were excised and scanned at the distal metaphysis 1 mm from the patellar groove with single photon absorptiometry. Results of the densitometer measurements represent a calculation of bone density as a function of the bone mineral content and bone width.

[2] = test system: ovariectomized (ovex) rats; assay: Uterine wet weight in ovariectomized rats; details: for % Uterine Weight Gain: relative to estrogen treated ovex animals
Protocol: (§1) One week after arrival, the rats underwent bilateral ovariectomy under anesthesia (44 mg/kg Ketamine and 5 mg/kg Xylazine (Butler, Indianapolis, Ind.) administered intramuscularly). Treatment with vehicle, estrogen, or a compound of formula I was initiated on the day of surgery following recovery from anesthesia. Oral dosage was by gavage in 0.5 mL of 1% carboxymethylcellulose (CMC). Body weight was determined at the time of surgery and weekly thereafter and the dosage was adjusted with changes in body weight. Vehicle or estrogen treated ovariectomized (ovex) rats and non-ovariectomized (intact) rats were evaluated in parallel with each experimental group to serve as negative and positive controls.
(§2) The rats were treated daily for 35 days (6 rats per treatment group) and sacrificed by decapitation on the 36th day. […] At the time of sacrifice, the uteri were removed, dissected free of extraneous tissue, and the fluid contents were expelled before determination of wet weight in order to confirm estrogen deficiency associated with complete ovariectomy. […] The uteri were then placed in 10% neutral buffered formalin to allow for subsequent histological analysis.

[3] = test system: ovariectomized (ovex) rats; details: rat, in vivo, po
Protocol: as §1, §2

ovariectomized rats = assay: Uterine histological parameters of estrogenicity in ovariectomized rats; details: for Epithelial Height / Myometrial Thickness / Stromal Eosinophils / Stromal Expansion: Table 6, ovex rats, 1 mg/kg
Protocol: A relatively narrow range of doses of raloxifene and tamoxifen was administered orally to ovariectomized rats as in the previous example.
Increases in epithelial height are a sign of estrogenicity of therapeutic agents and may be associated with increased incidence of uterine cancer.
Estrogenicity was also assessed by evaluating the adverse response of eosinophil infiltration into the stromal layer of the uterus (Table 6).

[4] = Oral administration to human subjects in the clinic: parent compound in serum
[5] = test system: uterine uptake of tritiated-estradiol; assay: Laboratory animal studies: uterine uptake of tritiated-estradiol and uterotrophic response to estradiol; details: laboratory animals; conditions where raloxifene was extensively conjugated in plasma
Text: Experiments were undertaken to address the bioavailability issue in laboratory animals where biological activity could be assessed.

[6] = Love et al. 1992; Turner et al. 1988; cited from earlier work
[7] = ovex rats, 1 mg/kg oral, relative to estrogen treated ovex animals
[8] = Table 5, ovex rats, 1 mg/kg oral

O=C(Oc1ccc(-c2sc3cc(OC(=O)c4ccc(F)cc4)ccc3c2C(=O)c2ccc(OCCN3CCCCC3)cc2)cc1)c1ccc(F)cc1 [Compound 2, 6-(4-Fluorobenzoyloxy)-2-[4-(4-fluorobenzoyloxy)-phenyl]-benzo[b]thien-3-yl-[4-[2-(piperidin-1-yl)ethoxy)-phenyl]-methanone Hydrochloride]
inhibition in vivo at 1 mg/kg [1, 7]: 86% | % Uterine Weight Gain ([2]; ovex rats, 1 mg/kg oral): 26%

CCCC(=O)Oc1ccc(-c2sc3cc(OC(=O)CCC)ccc3c2C(=O)c2ccc(OCCN3CCCCC3)cc2)cc1 [Compound 6, 6-(n-Butanoyloxy)-2-[4-(n-butanoyloxy)phenyl]benzo[b]thien-3-yl-[4-[2-(piperidin-1-yl)ethoxy]phenyl]methanone Hydrochloride]
inhibition in vivo at 1 mg/kg [1, 7]: 24% | % Uterine Weight Gain ([2]; ovex rats, 1 mg/kg oral): 19%

CC(C)(C)C(=O)Oc1ccc(-c2sc3cc(OC(=O)C(C)(C)C)ccc3c2C(=O)c2ccc(OCCN3CCCCC3)cc2)cc1.Cl [Compound 8, 6-(2,2-Dimethylpropanoyloxy)-2-[4-(2,2-dimethyl-propanoyloxy)phenyl]benzo[b]thien-3-yl-[4-[2-(piperidin-1-yl)ethoxy]phenyl]methanone Hydrochloride]
inhibition in vivo at 1 mg/kg [1, 7]: 66% | % Uterine Weight Gain ([2]; ovex rats, 1 mg/kg oral): 24%

CC(C)(C)CC(=O)Oc1ccc(-c2sc3cc(OC(=O)CC(C)(C)C)ccc3c2C(=O)c2ccc(OCCN3CCCCC3)cc2)cc1 [Compound 10, 6-(3,3-Dimethylbutanoyloxy)-2-[4-(3,3-dimethylbutanoyloxy)-phenyl]benzo[b]thien-3-yl-[4-[2-(piperidin-1-yl)ethoxy]-phenyl]methanone Hydrochloride]
inhibition in vivo at 1 mg/kg [1, 7]: 52% | % Uterine Weight Gain ([2]; ovex rats, 1 mg/kg oral): 24%

Cc1ccc(C(=O)Oc2ccc(-c3sc4cc(OC(=O)c5ccc(C)cc5)ccc4c3C(=O)c3ccc(OCCN4CCCCC4)cc3)cc2)cc1 [Compound 11, 6-(4-Methylbenzoyloxy)-2-[4-(4-methylbenzoyloxy)-phenyl]benzo[b]thien-3-yl[4-[2-(piperidin-1-yl)ethoxy]-phenyl]methanone Hydrochloride]
inhibition in vivo at 1 mg/kg [1, 7]: 26% | % Uterine Weight Gain ([2]; ovex rats, 1 mg/kg oral): 28%

O=C(Oc1ccc(-c2sc3cc(OC(=O)c4ccccc4)ccc3c2C(=O)c2ccc(OCCN3CCCCC3)cc2)cc1)c1ccccc1 [Compound 12]
% Uterine Weight Gain ([3]; 1 mg/kg): 15% | % Inhibition of Bone Loss [1, 7]: 60%

CCCCOC(=O)Oc1ccc(-c2sc3cc(OC(=O)OCCCC)ccc3c2C(=O)c2ccc(OCCN3CCCCC3)cc2)cc1.Cl [Compound 14, 6-(n-Butoxycarbonyloxy)-2-[4(n-butoxycarbonyloxy)phenyl]-benzo[b]thien-3-yl[4-[2-(piperidin-1-yl)ethoxy]phenyl]-methanone Hydrochloride]
inhibition in vivo at 1 mg/kg [1, 7]: 121% | % Uterine Weight Gain ([2]; ovex rats, 1 mg/kg oral): 32%

O=C(Oc1ccccc1)Oc1ccc(-c2sc3cc(OC(=O)Oc4ccccc4)ccc3c2C(=O)c2ccc(OCCN3CCCCC3)cc2)cc1 [Compound 16, 6-(Phenyloxycarbonyloxy)-2-[4(phenyloxycarbonyloxy)phenyl]-benzo[b]thien-3-yl[4-[2-(piperidin-1-yl)ethoxy]phenyl]-methanone hydrochloride]
inhibition in vivo at 1 mg/kg [1, 7]: 108% | % Uterine Weight Gain ([2]; ovex rats, 1 mg/kg oral): 25%

COCC(=O)Oc1ccc(-c2sc3cc(OC(=O)COC)ccc3c2C(=O)c2ccc(OCCN3CCCCC3)cc2)cc1 [Compound 18, 6-(Methoxyethanoyloxy)-2-[4(methoxyethanoyloxy)phenyl]-benzo[b]thien-3-yl [4-[2-(piperidin-1-yl)ethoxy]phenyl]-methanone]
inhibition in vivo at 1 mg/kg [1, 7]: 21% | % Uterine Weight Gain ([2]; ovex rats, 1 mg/kg oral): 17%

C#C[C@]1(O)CC[C@H]2[C@@H]3CCc4cc(O)ccc4[C@H]3CC[C@@]21C [EE2, ethynyl estradiol, reference compound]
eosinophil infiltration into the stromal layer of the uterus, in words (ovariectomized rats; rat, in vivo): caused a large increase in eosinophil infiltration | epithelial height, in words (ovariectomized rats; rat, in vivo, po): increased epithelial height to a thickness greater than intact rats | uterine weight, in words [3]: approached those of the intact controls | Bone Density ([1]; Table 4 Experiment A, ovex rats, EE2 100 μg/kg oral): 202 ± 6 mg/cm/cm | Bone Density ([1]; Table 4 Experiment B, ovex rats, EE2 100 μg/kg oral): 215 ± 11 mg/cm/cm | Bone Density ([1]; Table 5, ovex rats, 100 μg/kg oral): 212 ± 10 mg/cm/cm | prevention of bone loss (femur density), in words ([1]; ovariectomized rats): prevented this loss of bone in a dose dependent manner | Bone Density ([1]; ovex rats, 100 μg/kg oral daily 35 days, five experiments accumulated, mean of thirty rats ± SEM (Table 2)): 210 ± 4 mg/cm/cm

Cl.O=C(c1ccc(OCCN2CCCCC2)cc1)c1c(-c2ccc(O)cc2)sc2cc(O)ccc12 [raloxifene, 6-hydroxy-2-(4-hydroxyphenyl)-benzo[b]thien-3-yl-4-[2-(piperidin-1-yl)ethoxyphenyl]-methanone hydrochloride]
clearance from the bloodstream [4]: cleared quickly from the bloodstream | conjugation following oral administration [4]: extensively conjugated to the glucuronidated form | parent compound in the serum [4]: not detected | Epithelial Height (ovariectomized rats): 1.67 | Myometrial Thickness (ovariectomized rats): 5.42 | Stromal Eosinophils (ovariectomized rats): 1.17 | Stromal Expansion (ovariectomized rats): 14.00 | eosinophil infiltration into the stromal layer of the uterus, in words (ovariectomized rats; ovariectomized rats): did not cause any increase | thickness of the stroma and myometrium, in words (ovariectomized rats; ovariectomized rats): an increase in these measurements that was much less than the effect of estrogen | total score of estrogenicity (compilation of all four parameters) (ovariectomized rats; ovariectomized rats): significantly less estrogenic than tamoxifen | epithelial height, in words (ovariectomized rats; ovariectomized rats, oral): only at one dose was there any statistically measurable increase in epithelial height over the ovariectomized controls | Uterine Weight ([3]; 1 mg/kg): 198 ± 9 mg | Bone Density ([1]; Table 4 Experiment B, ovex rats, raloxifene 1 mg/kg alone): 198 ± 11 mg/cm/cm | Bone Density [1, 8]: 207 ± 13 mg/cm/cm | prevention of bone loss (femur density), in words ([1]; ovariectomized rats, hydrochloride): prevented bone loss in a dose dependent manner; also recorded: significantly reduced bone loss; also recorded: displayed the ability to prevent reduction of femur density | effect on the protective effect of estrogen on bone density ([1]; ovariectomized rats, given in combination with ethynyl estradiol): did not appreciably reduce the protective effect of the estrogen on bone density | Bone Density ([1]; ovex rats, 0.01 mg/kg oral, 35 days, five assays combined, thirty rats, mean ± SEM (Table 3)): 176 ± 3 mg/cm/cm | Bone Density ([1]; ovex rats, 0.10 mg/kg oral, 35 days, five assays combined, thirty rats, mean ± SEM (Table 3)): 197 ± 3 mg/cm/cm | Bone Density ([1]; ovex rats, 1.00 mg/kg oral, 35 days, five assays combined, thirty rats, mean ± SEM (Table 3)): 201 ± 3 mg/cm/cm | Bone Density ([1]; ovex rats, 10.00 mg/kg oral, 35 days, five assays combined, thirty rats, mean ± SEM (Table 3)): 199 ± 3 mg/cm/cm | inhibition of the normal uterotrophic response to estradiol [5]: maximally active | inhibition of uterine uptake of tritiated-estradiol [5]: maximally active

CC/C(=C(\c1ccccc1)c1ccc(OCCN(C)C)cc1)c1ccccc1 [tamoxifen]
Epithelial Height (ovariectomized rats): 2.58 | Myometrial Thickness (ovariectomized rats): 5.50 | Stromal Eosinophils (ovariectomized rats): 2.83 | Stromal Expansion (ovariectomized rats): 14.17 | eosinophil infiltration into the stromal layer of the uterus, in words (ovariectomized rats; ovariectomized rats): caused a significant increase | thickness of the stroma and myometrium, in words (ovariectomized rats; ovariectomized rats): an increase in these measurements that was much less than the effect of estrogen | epithelial height, in words (ovariectomized rats; ovariectomized rats, oral): increased epithelial height equal to that of an intact rat | increase in epithelial height over the response seen with raloxifene (ovariectomized rats; ovariectomized rats, all doses given): six-fold | inhibition of bone loss [6]: has been shown to inhibit bone loss | Bone Density [1, 8]: 204 ± 7 mg/cm/cm | prevention of bone loss (femur density), in words ([1]; ovariectomized rats): displayed the ability to prevent reduction of femur density | Uterine Weight [2, 8]: 216 ± 18 mg | uterine weight, in words ([2]; ovariectomized rats, oral): only modest uterotrophic activity
